Measured values reported in patent US20260274807A1 (University of Health Sciences and Pharmacy in St. Louis, priority 2023, published 2026).

Experiments:
[1] = biological target: T1, ERRα (Homo sapiens, UniProt P11474); assay: ERRE luciferase reporter assay in HEK293 cells transfected with pcDNA3.1 ERRα; format: cell-based; conditions: HEK293 cells transfected with ERRE reporter construct and pcDNA3.1 ERRα; compound for 24 hours; luciferase activity
T1 construct: expressed in transfected cells; host or cells: HEK293
T1 sequence (P11474 1-423): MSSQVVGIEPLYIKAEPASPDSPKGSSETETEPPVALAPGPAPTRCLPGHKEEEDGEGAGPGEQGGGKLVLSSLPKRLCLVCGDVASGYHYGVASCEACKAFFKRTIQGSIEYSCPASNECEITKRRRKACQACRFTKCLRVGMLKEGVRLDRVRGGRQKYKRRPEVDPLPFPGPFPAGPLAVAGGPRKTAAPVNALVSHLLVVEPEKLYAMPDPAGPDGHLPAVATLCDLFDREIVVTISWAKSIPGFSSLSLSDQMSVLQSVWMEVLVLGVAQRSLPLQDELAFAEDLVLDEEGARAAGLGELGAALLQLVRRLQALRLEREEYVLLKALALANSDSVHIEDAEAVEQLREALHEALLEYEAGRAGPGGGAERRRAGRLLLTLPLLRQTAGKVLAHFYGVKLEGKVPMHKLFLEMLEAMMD

[2] = biological target: T2, ERRγ (Homo sapiens, UniProt P62508); assay: ERRE luciferase reporter assay in HEK293 cells transfected with pcDNA3.1 ERRγ; format: cell-based; conditions: HEK293 cells transfected with ERRE reporter construct and pcDNA3.1 ERRγ; compound for 24 hours; luciferase activity
T2 construct: expressed in transfected cells; host or cells: HEK293
T2 sequence (P62508 1-458): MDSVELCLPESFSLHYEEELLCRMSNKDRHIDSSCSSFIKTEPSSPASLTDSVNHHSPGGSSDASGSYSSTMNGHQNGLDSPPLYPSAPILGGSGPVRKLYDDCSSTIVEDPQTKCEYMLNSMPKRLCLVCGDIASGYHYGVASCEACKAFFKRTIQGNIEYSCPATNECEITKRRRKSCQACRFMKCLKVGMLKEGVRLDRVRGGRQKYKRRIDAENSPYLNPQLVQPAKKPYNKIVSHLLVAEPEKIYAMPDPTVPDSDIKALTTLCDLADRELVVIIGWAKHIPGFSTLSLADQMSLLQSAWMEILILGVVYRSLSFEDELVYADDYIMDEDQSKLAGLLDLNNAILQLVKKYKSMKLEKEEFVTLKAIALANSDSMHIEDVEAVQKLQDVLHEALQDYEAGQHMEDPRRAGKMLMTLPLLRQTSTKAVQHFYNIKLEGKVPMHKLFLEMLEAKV

Q: `FC(F)(F)c1ccc(-c2nnc(-c3cccc4ncccc34)s2)cc1` [Entry 1062, 2-(quinolin-5-yl)-5-(4-(trifluoromethyl)phenyl)-1,3,4-thiadiazole] was tested. Which EC50 [1] did it give?
A: The EC50 was < 1000 nM.

Q: What about the EC50 [2] of the same compound?
A: The EC50 was < 1000 nM.

Q: Which EC50 [1] does the source give for `COC(=O)c1cccc(-c2nnc(-c3ccc(C(F)(F)F)cc3)s2)c1` [Entry 1064, methyl 3-(5-(4-(trifluoromethyl)phenyl)-1,3,4-thiadiazol-2-yl)benzoate] here?
A: Its EC50 is > 5000 nM.

Q: What about the EC50 [2] of the same compound?
A: The EC50 was 1000 to 5000 nM.

Q: `COc1ccc(-c2nnc(-c3ccc(C(F)(F)F)cc3)s2)cn1` [Entry 1071, 2-(6-methoxypyridin-3-yl)-5-(4-(trifluoromethyl)phenyl)-1,3,4-thiadiazole] was tested. Which EC50 [1] did it give?
A: The EC50 was < 1000 nM.

Q: What about the EC50 [2] of the same compound?
A: The EC50 was 1000 to 5000 nM.

Q: `Cc1cccc(-c2nnc(-c3cccc(C(F)(F)F)c3)s2)n1` [Entry 1073, 2-(6-methylpyridin-2-yl)-5-(3-(trifluoromethyl)phenyl)-1,3,4-thiadiazole] was tested. Which EC50 [1] did it give?
A: The EC50 was > 5000 nM.

Q: What about the EC50 [2] of the same compound?
A: The EC50 was 1000 to 5000 nM.

Q: Which EC50 [1] does the source give for `FC(F)(F)c1cccc(-c2nnc(-c3cccnc3Cl)s2)c1` [Entry 1074, 2-(2-chloropyridin-3-yl)-5-(3-(trifluoromethyl)phenyl)-1,3,4-thiadiazole] here?
A: Its EC50 is 1000 to 5000 nM.

Q: What about the EC50 [2] of the same compound?
A: The EC50 was 1000 to 5000 nM.

Q: What does the source list for `Cc1ccc(-c2nnc(-c3scnc3C)s2)cc1` [Entry 1080, 2-(4-methylthiazol-5-yl)-5-(p-tolyl)-1,3,4-thiadiazole]?
A: EC50 [1]: < 1000 nM; EC50 [2]: < 1000 nM

Q: How did the EC50 [1] turn out when `Cc1ccc(-c2nnc(-c3cncs3)s2)cc1` [Entry 1082, 2-(thiazol-5-yl)-5-(p-tolyl)-1,3,4-thiadiazole] was run?
A: The EC50 was < 1000 nM.

Q: And the EC50 [2]?
A: The EC50 was < 1000 nM.
